# According to ChEMBL document CHEMBL3885861, “Open TG-GATES”:
# Species: Rattus norvegicus
# Experiment: Open TG-GATES - Regimen: Daily Repeat
# Type: toxicity, organism-based, Sprague-Dawley
# Design: regimen Daily Repeat, gender Male, age 6 weeks
# Conditions: in vivo, po, route gavage; for TG / TP / gamma-GTP / ALT / AST / CRE / Ca / Cl / DBIL / GLC / IP / K / LDH / RALB / TBIL / ALP / TC: tissue Plasma; for KIDNEY_L / KIDNEY_R / KIDNEY_TOTAL: tissue Kidney
# [1] = 30 mg/kg, […], dose level Middle, time 28 day
# [2] = 100 mg/kg, 72 h, dose level High, time 3 day
# [3] = 100 mg/kg, 72 h, tissue Blood, dose level High, time 3 day
# [4] = 100 mg/kg, […], dose level High, time 7 day
# [5] = 100 mg/kg, […], dose level High, time 14 day
# [6] = 100 mg/kg, […], dose level High, time 28 day
# [7] = 100 mg/kg, […], tissue Blood, dose level High, time 7 day
# [8] = 100 mg/kg, […], tissue Blood, dose level High, time 14 day
# [9] = 100 mg/kg, […], tissue Blood, dose level High, time 28 day
smiles,measurement,setting,value
Cn1c(=O)c2c(ncn2C)n(C)c1=O [CAFFEINE],TG,[1],88.6 mg/dL
same,TP,[1],6.1 g/dL
same,gamma-GTP,[1],2 IU/L
same,TERMINAL_BW,[2],205.8 g
same,APTT,[3],22.4 s
same,Bas,[3],0%
same,Eos,[3],1%
same,Fbg,[3],319.6 mg/dL
same,Lym,[3],74.4%
same,MCHC,[3],33.8%
same,MCV,[3],60.6 fL
same,Mono,[3],1.6%
same,Neu,[3],22.4%
same,PT,[3],15.8 s
same,Plat,[3],126.2 x10_4/uL
same,RBC,[3],686 x10_4/ul
same,Ret,[3],4.3%
same,WBC,[3],81.5 x10_2/uL
same,KIDNEY_L,[2],0.9 g
same,KIDNEY_R,[2],0.9 g
same,KIDNEY_TOTAL,[2],1.8 g
same,ALT,[2],38 IU/L
same,AST,[2],70.2 IU/L
same,CRE,[2],0.2 mg/dL
same,Ca,[2],10.8 mg/dL
same,Cl,[2],108.6 meq/L
same,DBIL,[2],0 mg/dL
same,GLC,[2],169.6 mg/dL
same,IP,[2],8.9 mg/dL
same,K,[2],4.4 meq/L
same,LDH,[2],159.6 IU/L
same,RALB,[2],3.2 g/dL
same,TBIL,[2],0.018 mg/dL
same,TG,[2],43 mg/dL
same,TP,[2],5.8 g/dL
same,gamma-GTP,[2],1 IU/L
same,TERMINAL_BW,[4],226.6 g
same,TERMINAL_BW,[5],270 g
same,TERMINAL_BW,[6],302.8 g
same,APTT,[7],22.8 s
same,Bas,[7],0%
same,Eos,[7],1%
same,Fbg,[7],321.8 mg/dL
same,Lym,[7],80.8%
same,MCHC,[7],34%
same,MCV,[7],60.4 fL
same,Mono,[7],2%
same,Neu,[7],15.2%
same,PT,[7],15.3 s
same,Plat,[7],109.2 x10_4/uL
same,RBC,[7],705.4 x10_4/ul
same,Ret,[7],4.8%
same,WBC,[7],100.2 x10_2/uL
same,APTT,[8],24.3 s
same,Bas,[8],0%
same,Eos,[8],0.4%
same,Fbg,[8],320.6 mg/dL
same,Ht,[8],44.2%
same,Lym,[8],80%
same,MCH,[8],20.1 pg
same,MCV,[8],58.9 fL
same,Mono,[8],2%
same,Neu,[8],16.6%
same,PT,[8],15.5 s
same,Plat,[8],110.4 x10_4/uL
same,RBC,[8],750.4 x10_4/ul
same,Ret,[8],3.5%
same,WBC,[8],105.7 x10_2/uL
same,APTT,[9],23.7 s
same,Bas,[9],0%
same,Eos,[9],1%
same,Fbg,[9],308.2 mg/dL
same,Lym,[9],75.6%
same,MCH,[9],19.1 pg
same,MCHC,[9],34.9%
same,MCV,[9],54.8 fL
same,Mono,[9],2.8%
same,Neu,[9],18.8%
same,PT,[9],15.9 s
same,Plat,[9],97.1 x10_4/uL
same,RBC,[9],829 x10_4/ul
same,Ret,[9],2.1%
same,WBC,[9],98.3 x10_2/uL
same,KIDNEY_L,[4],1 g
same,KIDNEY_R,[4],1 g
same,KIDNEY_TOTAL,[4],2 g
same,KIDNEY_L,[5],1.2 g
same,KIDNEY_R,[5],1.2 g
same,KIDNEY_TOTAL,[5],2.4 g
same,KIDNEY_L,[6],1.2 g
same,KIDNEY_R,[6],1.2 g
same,KIDNEY_TOTAL,[6],2.5 g
same,ALP,[4],1284.2 IU/L
same,ALT,[4],41.2 IU/L
same,AST,[4],74.6 IU/L
same,CRE,[4],0.1 mg/dL
same,Ca,[4],10.4 mg/dL
same,Cl,[4],106.2 meq/L
same,DBIL,[4],0 mg/dL
same,GLC,[4],182.8 mg/dL
same,IP,[4],8.5 mg/dL
same,K,[4],4.2 meq/L
same,LDH,[4],175.6 IU/L
same,RALB,[4],3 g/dL
same,TBIL,[4],0.016 mg/dL
same,TC,[4],84 mg/dL
same,TG,[4],77.4 mg/dL
same,TP,[4],5.7 g/dL
same,gamma-GTP,[4],1.6 IU/L
same,ALP,[5],1222.6 IU/L
same,ALT,[5],46.8 IU/L
same,AST,[5],80.6 IU/L
same,CRE,[5],0.2 mg/dL
same,Ca,[5],10.6 mg/dL
same,Cl,[5],105.8 meq/L
same,DBIL,[5],0 mg/dL
same,GLC,[5],184.8 mg/dL
same,IP,[5],8 mg/dL
same,K,[5],4.2 meq/L
same,LDH,[5],140.2 IU/L
same,RALB,[5],3.1 g/dL
same,TBIL,[5],0.022 mg/dL
same,TC,[5],80.4 mg/dL
same,TG,[5],83.4 mg/dL
same,TP,[5],5.8 g/dL
same,gamma-GTP,[5],2 IU/L
same,ALP,[6],1068.4 IU/L
same,ALT,[6],53.8 IU/L
same,AST,[6],85.4 IU/L
same,CRE,[6],0.2 mg/dL
same,Ca,[6],10.4 mg/dL
same,Cl,[6],106.2 meq/L
same,DBIL,[6],0 mg/dL
same,GLC,[6],180.8 mg/dL
same,IP,[6],7.8 mg/dL
same,K,[6],4.2 meq/L
same,LDH,[6],163 IU/L
same,RALB,[6],3.2 g/dL
same,TBIL,[6],0.034 mg/dL
same,TC,[6],80.2 mg/dL
same,TG,[6],77 mg/dL
same,TP,[6],6 g/dL
same,gamma-GTP,[6],2.6 IU/L
